The source of these data is patent US11667602B2, “Compounds and their use” (AstraZeneca AB, priority 2020, dated 2023).

The structures appear in SMILES notation. Converted amounts (≈) assume the structure as drawn.

Data set [1] can be described thus: Rat Hepatocyte Stability (Test E). The class given is in vitro ADME. As to conditions: rat, hepatocytes, geometric mean if run multiple times. The essentials:
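Run per the published AstraZeneca-type rat hepatocyte stability protocol (Wernevik et al. panel). Values are mean intrinsic clearance, Clint in μl/min/10^6 cells; geometric mean used for repeated runs.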

A short description of data set [2]: Solubility (Test F). The class given is physicochemical. As to conditions: arithmetic mean if run multiple times. The protocol:
The assay was conducted according to the Solubility Assay described in pages 164-167 of Wernevik, J. et al., “A Fully Integrated Assay Panel for Early Drug Metabolism and Pharmacokinetics Profiling”, Assay and Drug Development Technologies, 2020, 18(4), 157-179. Data are reported in Table 36 as solubility ([…]. Where the assay was run multiple times for the same compound, the arithmetic mean is reported.

Data set [3] in a line: Human Plasma Protein Binding (Test B). As to conditions: fraction unbound (fu). The class given is in vitro ADME. The protocol:
Human Plasma Protein Binding (Test B)
The assay was conducted according to the Human Plasma Protein Binding Assay described in pages 167-170 of Wernevik, J. et al., “A Fully Integrated Assay Panel for Early Drug Metabolism and Pharmacokinetics Profiling”, Assay and Drug Development Technologies, 2020, 18(4), 157-179. Data are reported in Table 36 as fraction unbound (fu) (% free). Where the assay was run multiple times for the same compound, the arithmetic mean is reported.

Data set [4] can be described thus: Human Liver Microsomal Stability (Test C). The format is in vitro ADME. As to conditions: human, liver microsomes. The essentials:
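Human liver microsome incubation per the Wernevik et al. integrated DMPK panel protocol. Intrinsic clearance reported as CLint in μl/min/mg protein, averaged arithmetically over repeat runs.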

Data set [5] deals with T1, human RXFP1 (Homo sapiens, UniProt Q9HBX9).
T1 sequence (Q9HBX9 1-757): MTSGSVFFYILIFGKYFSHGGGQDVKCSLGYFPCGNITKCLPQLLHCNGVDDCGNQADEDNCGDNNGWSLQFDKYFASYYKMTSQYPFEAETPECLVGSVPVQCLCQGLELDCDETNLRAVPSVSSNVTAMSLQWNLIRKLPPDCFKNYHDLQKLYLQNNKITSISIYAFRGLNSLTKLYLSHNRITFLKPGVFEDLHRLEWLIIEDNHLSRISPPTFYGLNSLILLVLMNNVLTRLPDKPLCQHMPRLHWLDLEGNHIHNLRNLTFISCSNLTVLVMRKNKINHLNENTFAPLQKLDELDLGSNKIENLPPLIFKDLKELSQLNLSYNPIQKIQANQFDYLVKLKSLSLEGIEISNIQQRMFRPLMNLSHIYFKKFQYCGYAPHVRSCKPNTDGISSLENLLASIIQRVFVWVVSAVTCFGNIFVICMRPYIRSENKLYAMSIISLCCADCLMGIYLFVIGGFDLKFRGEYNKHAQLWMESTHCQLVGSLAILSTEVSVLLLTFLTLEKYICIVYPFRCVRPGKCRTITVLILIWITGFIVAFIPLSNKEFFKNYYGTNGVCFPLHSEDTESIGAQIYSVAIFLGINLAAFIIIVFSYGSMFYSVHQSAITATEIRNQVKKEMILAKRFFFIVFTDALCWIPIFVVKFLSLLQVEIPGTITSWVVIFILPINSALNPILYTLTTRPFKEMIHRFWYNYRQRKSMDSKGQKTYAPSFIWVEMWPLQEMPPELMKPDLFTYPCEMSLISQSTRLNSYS
The data set is described as follows: RXFP1 Hu cAMP (Test A). The class given is cell-based. The arrangement: expressed in transfected cells; host or cells: Jump-In T-REx CHO-K1 cells (ThermoFisher), induced with 10 ng/ml doxycycline for 24 h. As to conditions: RXFP1 Hu cAMP; for EC50: read-out: Test A EC50. The essentials: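 Read-out is HTRF signal, inversely proportional to cAMP, converted to cAMP amount by standard curve. Stimulation occurred in inducible CHO-K1 cells expressing the human receptor with phosphodiesterases blocked by 0.5 mM IBMX.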

In general, hepatocyte CLint refers to the rate of metabolic loss divided by the concentration. A lower hepatocyte CLint goes with greater metabolic stability. One may read the solubility as the concentration that dissolves in the medium under given conditions. Higher therefore signals much dissolved substance. The term microsomal CLint denotes the rate of metabolic loss divided by the concentration. A low value points to greater metabolic stability. In general, EC50 refers to the concentration needed to bring the measured effect to its halfway point. In data set [1], `COc1cc(F)c(O[C@H]2CC[C@@](C)(C(=O)O)CC2)cc1C(=O)N[C@@H]1[C@H]2CC[C@H](C2)[C@@H]1C(=O)N[C@H](C)C(C)C` [Example 46] returned an intrinsic clearance (hepatocyte CLint) of 12 µL/min/1e6 cells. The amount in solution in data set [2] (solubility) came to 380 µM (≈ 202 µg/mL). In addition, the “Test B Human Plasma Protein Binding (% free)” value in data set [3] was 7.6 % free. In data set [4], the microsomal CLint was found to be 12 µL/min/mg. In addition, in data set [5], the “Test A Sinf” value came out at 104% and the half-maximal effective concentration (EC50) was 71 nM.
As for `COc1cc(F)c(O[C@H]2CC[C@@H](C(=O)O)CC2)cc1C(=O)N[C@@H]1[C@H]2CC[C@H](C2)[C@@H]1C(=O)Nc1cc(F)cc(S(F)(F)(F)(F)F)c1` [Example 17, (1S,4s)-4-(2-Fluoro-5-(((1S,2R,3S,4R)-3-((3-fluoro-5-(pentafluoro-6-sulfaneyl)phenyl)carbamoyl)bicyclo[2.2.1]heptan-2-yl)carbamoyl)-4-methoxyphenoxy)cyclohexane-1-carboxylic acid], in data set [1], the hepatocyte CLint was found to be 11 µL/min/1e6 cells. Further, the solubility in data set [2] was 150 µM (≈ 100 µg/mL). Moreover, the “Test B Human Plasma Protein Binding (% free)” value in data set [3] is recorded as under 0.21 % free. Also, the intrinsic metabolic clearance (microsomal CLint) in data set [4] came to 20 µL/min/mg. For the same compound, in data set [5], the “Test A Sinf” value turned out to be 110% and the 50% effective concentration (EC50) was 48 nM.
In turn, `COc1cc(C#N)c(O[C@H]2C[C@]3(C2)C[C@H](C(=O)O)C3)cc1C(=O)N[C@@H]1[C@H]2CC[C@H](C2)[C@@H]1C(=O)NCC1(C)CCC1` (single isomer, unassigned) [Example 7, (2R*,4r,6R)-6-(2-Cyano-4-methoxy-5-(((1S,2R,3S,4R)-3-(((1-methylcyclobutyl)methyl)carbamoyl)bicyclo[2.2.1]heptan-2-yl)carbamoyl)phenoxy)spiro[3.3]heptane-2-carboxylic acid] came in with a hepatocyte CLint in data set [1] of 23 µL/min/1e6 cells. The concentration in solution in data set [2] (solubility) was 820 µM (≈ 451 µg/mL). Also, in data set [3], the “Test B Human Plasma Protein Binding (% free)” value came to 4.4 % free. In data set [4], this compound had a microsomal CLint of 23 µL/min/mg. Further, in data set [5], the “Test A Sinf” value worked out at 86% and the EC50 stood at 1300 nM.
The compound `COc1cc(C#N)c(O[C@H]2CC[C@@](C)(C(=O)O)CC2)cc1C(=O)N[C@@H]1[C@H]2CC[C@H](C2)[C@@H]1C(=O)NCc1nccc(C(F)F)n1` [Example 114] showed a hepatocyte CLint in data set [1] of 94 µL/min/1e6 cells. This compound also yielded a solubility in data set [2] of 810 µM (≈ 495 µg/mL). In data set [3], the “Test B Human Plasma Protein Binding (% free)” value was found to be 17 % free. The same compound yielded an intrinsic metabolic clearance (microsomal CLint) in data set [4] of 17 µL/min/mg. Moreover, the EC50 in data set [5] was over 9400 nM.
In turn, `COc1cc(C#N)c(O[C@H]2CC[C@@](C)(C(=O)O)CC2)cc1C(=O)N[C@@H]1[C@H]2CC[C@H](C2)[C@@H]1C(=O)NCC1CC(C)(C)C1` [Example 87] had a hepatocyte CLint in data set [1] of 24 µL/min/1e6 cells. For the same compound, in data set [2], the solubility stood at 690 µM (≈ 390 µg/mL). In data set [3], the “Test B Human Plasma Protein Binding (% free)” value came out at 6.7 % free. This compound also displayed a microsomal CLint in data set [4] of 20 µL/min/mg. In data set [5], the “Test A Sinf” value is listed as 109% and the EC50 is 110 nM.
In data set [1], `COc1cc(F)c(-c2ccc(/C=C/C(=O)O)nc2)cc1C(=O)N[C@@H]1[C@H]2CC[C@H](C2)[C@@H]1C(=O)Nc1cccc(S(=O)(=O)C(F)(F)F)c1` [Example 260, (E)-3-(5-(2-Fluoro-4-methoxy-5-(((1S,2R,3S,4R)-3-((3-((trifluoromethyl)sulfonyl)phenyl)carbamoyl)bicyclo[2.2.1]heptan-2-yl)carbamoyl)phenyl)pyridin-2-yl)acrylic acid] registered an intrinsic metabolic clearance (hepatocyte CLint) of 69 µL/min/1e6 cells. The same compound yielded a solubility in data set [2] of 360 µM (≈ 238 µg/mL). Further, the “Test B Human Plasma Protein Binding (% free)” value in data set [3] amounted to 0.57 % free. The same compound gave a microsomal CLint in data set [4] of 69 µL/min/mg. In data set [5], the “Test A Sinf” value turned out to be 108%.
For the compound `COc1cc(C)c(O[C@H]2CC[C@@H](C(=O)O)CC2)cc1C(=O)N[C@@H]1[C@H]2CC[C@H](C2)[C@@H]1C(=O)Nc1cccc(S(=O)(=O)C(F)(F)F)c1` [Example 465, (1S,4s)-4-(4-Methoxy-2-methyl-5-(((1S,2R,3S,4R)-3-((3-((trifluoromethyl)sulfonyl)phenyl)carbamoyl)bicyclo[2.2.1]heptan-2-yl)carbamoyl)phenoxy)cyclohexane-1-carboxylic acid], the hepatocyte CLint in data set [1] came out at 36 µL/min/1e6 cells. In addition, the solubility in data set [2] turned out to be 300 µM (≈ 196 µg/mL). The “Test B Human Plasma Protein Binding (% free)” value in data set [3] was 0.76 % free. Besides, the microsomal CLint in data set [4] turned out to be 74 µL/min/mg. In addition, in data set [5], the “Test A Sinf” value stood at 97% and the EC50 worked out at 120 nM.
`COc1cc(F)c(-c2ccc(C[C@@H](N)C(=O)O)cc2)cc1C(=O)N[C@@H]1[C@H]2CC[C@H](C2)[C@@H]1C(=O)Nc1cccc(S(=O)(=O)C(F)(F)F)c1` [Example 291, (R)-2-Amino-3-(2′-fluoro-4′-methoxy-5′-(((1S,2R,3S,4R)-3-((3-((trifluoromethyl)sulfonyl)phenyl)carbamoyl)bicyclo[2.2.1]heptan-2-yl)carbamoyl)-[1,1′-biphenyl]-4-yl)propanoic acid] displayed a hepatocyte CLint in data set [1] of 22 µL/min/1e6 cells. Moreover, in data set [2], the solubility turned out to be 13 µM (≈ 8.81 µg/mL). In addition, in data set [3], the “Test B Human Plasma Protein Binding (% free)” value was under 1.2 % free. For the same compound, the intrinsic clearance (microsomal CLint) in data set [4] came to 18 µL/min/mg. For the same compound, in data set [5], the “Test A Sinf” value was 106% and the EC50 worked out at 370 nM.
For the compound `COc1cc(Br)c(O[C@H]2CC[C@@H](C(=O)O)CC2)cc1C(=O)N[C@@H]1[C@H]2CC[C@H](C2)[C@@H]1C(=O)Nc1cccc(S(=O)(=O)C(F)(F)F)c1` [Example 464, (1S,4s)-4-(2-Bromo-4-methoxy-5-(((1S,2R,3S,4R)-3-((3-((trifluoromethyl)sulfonyl)phenyl)carbamoyl)bicyclo[2.2.1]heptan-2-yl)carbamoyl)phenoxy)cyclohexane-1-carboxylic acid], in data set [1], the intrinsic metabolic clearance (hepatocyte CLint) is 30 µL/min/1e6 cells. This compound returned a solubility in data set [2] of 200 µM (≈ 144 µg/mL). Also, in data set [3], the “Test B Human Plasma Protein Binding (% free)” value is 0.54 % free. Besides, in data set [4], the intrinsic metabolic clearance (microsomal CLint) was 57 µL/min/mg. In addition, in data set [5], the “Test A Sinf” value stood at 104% and the EC50 is 64 nM.
For `COc1cc(F)c(O[C@H]2CC[C@@](C)(C(=O)O)CC2)cc1C(=O)Nc1nn2cccnc2c1C(=O)NCC1(C)CCC1` [Example 217, (1s,4s)-4-(2-Fluoro-4-methoxy-5-((3-(((1-methylcyclobutyl)methyl)carbamoyl)pyrazolo[1,5-a]pyrimidin-2-yl)carbamoyl)phenoxy)-1-methylcyclohexane-1-carboxylic acid], the hepatocyte CLint in data set [1] is 17 µL/min/1e6 cells. This compound also had a solubility in data set [2] of under 7.3 µM. Further, the “Test B Human Plasma Protein Binding (% free)” value in data set [3] came out at 0.19 % free. In data set [4], this compound displayed a microsomal CLint of 43 µL/min/mg. In addition, the concentration giving a half-maximal response (EC50) in data set [5] is over 9400 nM.
In the case of `COc1cc(F)c(O[C@H]2CC[C@@H](C(=O)O)CC2)cc1C(=O)NC1C(C(=O)NCCCC(F)(F)F)[C@@H]2CC[C@H]1C2` (stereo partly drawn) [Example 175, (1S,4s)-4-(2-Fluoro-4-methoxy-5-(((1S,2R,3S,4R)-3-((4,4,4-trifluorobutyl)carbamoyl)bicyclo[2.2.1]heptan-2-yl)carbamoyl)phenoxy)cyclohexane-1-carboxylic acid], in data set [1], the hepatocyte CLint worked out at 110 µL/min/1e6 cells. This compound also had a solubility in data set [2] of over 1000 µM. Also, the “Test B Human Plasma Protein Binding (% free)” value in data set [3] was 14 % free. In addition, in data set [4], the intrinsic metabolic clearance (microsomal CLint) amounted to 5.8 µL/min/mg. Moreover, in data set [5], the “Test A Sinf” value came out at 100% and the EC50 was over 5900 nM.
Regarding `COc1cc(C#N)c(O[C@H]2CC[C@@](C)(C(=O)O)CC2)cc1C(=O)N[C@@H]1[C@H]2CC[C@H](C2)[C@@H]1C(=O)NCC1(C#N)CCC1` [Example 93], in data set [1], the hepatocyte CLint is 16 µL/min/1e6 cells. In data set [2], this compound registered a solubility of 920 µM (≈ 518 µg/mL). Further, the “Test B Human Plasma Protein Binding (% free)” value in data set [3] is on record as 24 % free. In addition, the intrinsic clearance (microsomal CLint) in data set [4] was under 3 µL/min/mg. In addition, in data set [5], the “Test A Sinf” value was 103% and the EC50 is 370 nM.
